# According to patent publication US20250214942A1, “INHIBITORS OF RECEPTOR INTERACTING PROTEIN KINASE I FOR THE TREATMENT OF DISEASE” (Board of Regents, The University of Texas System, priority 2019, published 2025):
# “And” between values parts separate entries of the source, which are not always exact repeats. Identical values can stand only once. Like-named read-outs stand apart in the source and are kept apart here.
# Molecular target: RIPK1 (Homo sapiens (Human), UniProt Q13546)
# Assay: ADP-Glo kinase assay (RIPK1 activity, conversion of ATP to ADP)
# Format: biochemical
# Conditions: 5 nM RIPK1, 50 μM ATP, 6 h reaction, read-out: RIPK1 Enzyme Avg IC50
# Procedure: In order to measure RIPK1 activity the ADP-Glo kinase assay (Promega, Catalog #V7002) was used to measure the conversion of ATP to ADP. This enzymatic assay was performed in a 384-well white, Optiplate (Perkin Elmer, Catalog #6007299) with assay buffer consisting of 50 mM HEPES pH 7.5 (Gibco, Catalog #15630-080), 50 mM NaCl (Teknova, Catalog #S0252), 30 mM MgCl2 (Ambion, Catalog #AM9530G), 1 mM DTT (Santa Cruz Biotechnology, Catalog #sc-29089), 0.05% BSA (Sigma, Catalog #A3059-50G) and 0.02% CHAPS (Sigma, Catalog #C5070-5G). Stock solutions of the test compounds were prepared in 100% DMSO (Sigma, Catalog #D2650) and serially diluted 1:3 using 100% DMSO. Compounds were additionally diluted 1:40 in assay buffer, and 2 μL/well were transferred to the assay plate. 4 μL/well (final concentration of 5 nM) of RIPK1 protein (SignalChem, Catalog #R07-1IG-05) diluted in assay buffer and added to the assay plate followed by a 10 minute preincutation at rt. 4 μL/well of ATP (Promega, Catalog #V7002) (final concentration of 50 μM) diluted in assay buffer were then added to the assay plate followed by a 6 h reaction time. Final concentrations of RIPK1 and ATP refer to a 10 μL volume. Luminescence was measured using a BioTek Synergy™ NEO plate reader. IC50 values were calculated using a four-parameter logistic curve fit using Genedata Screener software.
# RIPK1, sequence (Q13546 1-327): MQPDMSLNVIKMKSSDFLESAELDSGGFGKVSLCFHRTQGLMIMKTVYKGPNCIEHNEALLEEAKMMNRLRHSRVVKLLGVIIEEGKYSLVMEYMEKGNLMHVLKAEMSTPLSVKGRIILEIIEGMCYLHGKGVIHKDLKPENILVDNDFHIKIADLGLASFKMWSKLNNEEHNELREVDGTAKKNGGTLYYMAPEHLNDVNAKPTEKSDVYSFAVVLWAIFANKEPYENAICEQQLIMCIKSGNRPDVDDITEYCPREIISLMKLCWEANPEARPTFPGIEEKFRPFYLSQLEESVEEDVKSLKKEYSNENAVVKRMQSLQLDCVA
IC50 (footnote symbol (a)) [µM],IC50,Compound
> 50,–,"COC(=O)C12CC(C(=O)N[C@@H](C)c3cc(F)cc(F)c3)(C1)C2 [Example 115, methyl (S)-3-((1-(3,5-difluorophenyl)ethyl)-carbamoyl)bicyclo[1.1.1]-pentane-1-carboxylate]"
> 50,–,"CCC(=O)NC12CC(C(=O)N3CCCC3c3cccc(C)c3)(C1)C2 (stereo not shown) [Example 118, N-(3-(2-(m-tolyl)pyrrolidine-1-carbonyl)bicyclo[1.1.1]-pentan-1-yl)propionamide]"
> 50,–,"CC(=O)NC12CC(C(=O)N3CCCC3c3cccc(C)c3)(C1)C2 (stereo not shown) [Example 119, N-(3-(2-(m-tolyl)pyrrolidine-1-carbonyl)bicyclo[1.1.1]-pentan-1-yl)acetamide]"
–,5.46 µM,"O=C(N1N=CCC1c1cc(F)cc(F)c1)C12CC(Cn3cc(CO)nn3)(C1)C2 (stereo not shown) [Example 150, (5-(3,5-difluorophenyl)-4,5-dihydro-1H-pyrazol-1-yl)(3-((4-(hydroxymethyl)-1H-1,2,3-triazol-1-yl)methyl)-bicyclo[1.1.1]pentan-1-yl)methanone]"
–,0.501 µM,"N#Cc1cncn1CC12CC(C(=O)N3N=CCC3c3cc(F)cc(F)c3)(C1)C2 (stereo not shown) [Example 123, 1-((3-(5-(3,5-difluorophenyl)-4,5-dihydro-1H-pyrazole-1-carbonyl)bicyclo[1.1.1]-pentan-1-yl)methyl)-1H-imidazole-5-carbonitrile]"
–,2 µM,"C[C@H](NC(=O)C12CC(COc3cc(C#N)ncn3)(C1)C2)c1cc(F)cc(F)c1 [Example 102, (S)-3-(((6-cyanopyrimidin-4-yl)oxy)methyl)-N-(1-(3,5-difluorophenyl)ethyl)-bicyclo[1.1.1]pentane-1-carboxamide]"
–,0.28 µM,"N#Cc1cc(OCC23CC(C(=O)N4CC(F)CC4c4cccc(F)c4)(C2)C3)ccn1 (stereo not shown) [Example 99, 4-((3-(4-fluoro-2-(3-fluorophenyl)pyrrolidine-1-carbonyl)bicyclo[1.1.1]-pentan-1-yl)methoxy)-picolinonitrile]"
–,0.219 µM,"O=C(N1CC(F)CC1c1cccc(F)c1)C12CC(COc3ncc(F)cn3)(C1)C2 (stereo not shown) [Example 97, (4-fluoro-2-(3-fluorophenyl)-pyrrolidin-1-yl)(3-(((5-fluoropyrimidin-2-yl)oxy)-methyl)bicyclo[1.1.1]pentan-1-yl)methanone]"
–,0.206 µM,"Cc1cccc(OCC23CC(C(=O)N4CC(F)CC4c4cccc(F)c4)(C2)C3)c1 (stereo not shown) [Example 108, (4-fluoro-2-(3-fluorophenyl)-pyrrolidin-1-yl)(3-((m-tolyloxy)methyl)bicyclo-[1.1.1]pentan-1-yl)methanone]"
> 50,–,"Cc1cccc(C2CCCN2C(=O)C23CC(Nc4nccc(C#N)n4)(C2)C3)c1 (stereo not shown) [Example 105, 2-((3-(2-(m-tolyl)pyrrolidine-1-carbonyl)bicyclo[1.1.1]-pentan-1-yl)amino)-pyrimidine-4-carbonitrile]"
–,0.0096 µM,N#Cc1ccc2c(cnn2CC23CC(C(=O)N4N=CCC4c4cc(F)cc(F)c4)(C2)C3)n1 (stereo not shown) [Example 179]
–,> 16.7 µM and 8.9 µM,"O=C(N1CCC(Oc2ccccc2)C1)C12CC(F)(C1)C2 (stereo not shown) [Example 114, (3-fluorobicyclo[1.1.1]-pentan-1-yl)(3-phenoxypyrrolidin-1-yl)methanone]"
–,2.66 µM,"O=C(N1CC(F)CC1c1cccc(F)c1)C12CC(COc3cccc4nncn34)(C1)C2 (stereo not shown) [Example 103, (3-(([1,2,4]triazolo[4,3-a]-pyridin-5-yloxy)methyl)-bicyclo[1.1.1]pentan-1-yl)(4-fluoro-2-(3-fluorophenyl)-pyrrolidin-1-yl)methanone]"

# Continued, compound first:
Compound,IC50 (footnote symbol (a)) [µM],IC50
"O=C(N1CC[C@@H](Oc2cc(F)ccc2F)C1)C12CC(CO)(C1)C2 [Example 38, (R)-(3-(2,5-Difluorophenoxy)pyrrolidin-1-yl)(3-(hydroxymethyl)-bicyclo[1.1.1]pentan-1-yl)methanone]",> 50,–
"CS(=O)(=O)C1CN(CC23CC(C(=O)N4N=CCC4c4cc(F)cc(F)c4)(C2)C3)C1 (stereo not shown) [Example 80, (5-(3,5-difluorophenyl)-4,5-dihydro-1H-pyrazol-1-yl)(3-((3-(methylsulfonyl)azetidin-1-yl)methyl)bicyclo[1.1.1]-pentan-1-yl)methanone]",–,24.7 µM
"O=C(N1N=CCC1c1cc(F)cc(F)c1)C12CC(CN3CC(F)(F)C3)(C1)C2 (stereo not shown) [Example 79, (3-((3,3-difluoroazetidin-1-yl)methyl)bicyclo[1.1.1]-pentan-1-yl)(5-(3,5-difluoro-phenyl)-4,5-dihydro-1H-pyrazol-1-yl)methanone]",–,0.425 µM
"O=C(NCc1cc(F)cc(F)c1)C12CC(CO)(C1)C2 [Example 91, N-(3,5-difluorobenzyl)-3-(hydroxymethyl)bicyclo-[1.1.1]pentane-1-carboxamide]",> 50,–
"O=C(N1N=CCC1c1cc(F)cc(F)c1)C12CC(Cn3ncc4c(F)cncc43)(C1)C2 (stereo not shown) [Example 15, (5-(3,5-Difluorophenyl)-4,5-dihydro-1H-pyrazol-1-yl)(3-((4-fluoro-1H-pyrazolo[3,4-c]-pyridin-1-yl)methyl)bicyclo[1.1.1]pentan-1-yl)methanone]",–,0.022 µM
"Cc1cc(C)n(CC23CC(C(=O)N4N=CCC4c4cc(F)cc(F)c4)(C2)C3)n1 (stereo not shown) [Example 75, (5-(3,5-difluorophenyl)-4,5-dihydro-1H-pyrazol-1-yl)(3-((3,5-dimethyl-1H-pyrazol-1-yl)methyl)bicyclo[1.1.1]-pentan-1-yl)methanone]",–,0.323 µM
"COC(=O)C12CC(C(=O)N3N=CCC3c3cc(F)cc(F)c3)(C1)C2 (stereo not shown) [Example 1, Methyl 3-(5-(3,5-difluorophenyl)-4,5-dihydro-1H-pyrazole-1-carbonyl)bicyclo[1.1.1]pentane-1-carboxylate]",–,0.04 µM
"Cc1cccc(C2CCCN2C(=O)C23CC(N4C(=O)CCC4=O)(C2)C3)c1 (stereo not shown) [Example 25, 1-(3-(2-(m-Tolyl)pyrrolidine-1-carbonyl)bicyclo[1.1.1]pentan-1-yl)pyrrolidine-2,5-dione]",> 50,–
"CCOC12CC(C(=O)N3N=CCC3c3ccccc3)(C1)C2 (stereo not shown) [Example 46, (3-Ethoxybicyclo[1.1.1]pentan-1-yl)(5-phenyl-4,5-dihydro-1H-pyrazol-1-yl)methanone]",–,0.157 µM
"O=C(N1N=CCC1c1cc(F)cc(F)c1)C12CC(Cn3nc4ccccc4n3)(C1)C2 (stereo not shown) [Example 86, (3-((2H-benzo[d][1,2,3]-triazol-2-yl)methyl)bicyclo-[1.1.1]pentan-1-yl)(5-(3,5-difluorophenyl)-4,5-dihydro-1H-pyrazol-1-yl)methanone]",–,0.019 µM
"O=C(N1N=CCC1c1cc(F)cc(F)c1)C12CC(Cc3nnn[nH]3)(C1)C2 (stereo not shown) [Example 19, (3-((1H-tetrazol-5-yl)methyl)bicyclo[1.1.1]pentan-1-yl)(5-(3,5-difluorophenyl)-4,5-dihydro-1H-pyrazol-1-yl)methanone]",–,0.363 µM
"O=C(N1N=CCC1c1ccccc1)C12CC(O)(C1)C2 (stereo not shown) [Example 45, (3-Hydroxybicyclo[1.1.1]pentan-1-yl)(5-phenyl-4,5-dihydro-1H-pyrazol-1-yl)methanone]",–,8.59 µM
"(5-(3,5-difluorophenyl)-4,5-dihydro-1H-pyrazol-1-yl)(3-((6-methoxy-1H-benzo[d]-imidazol-1-yl)methyl)-bicyclo[1.1.1]pentan-1-yl)-methanone and (5-(3,5-difluorophenyl)-4,5-dihydro-1H-pyrazol-1-yl)(3-((5-methoxy-1H-benzo[d]-imidazol-1-yl)methyl)-bicyclo[1.1.1]pentan-1-yl)-methanone [Example 187]",–,0.447 µM
"1-((3-(5-(3,5-difluorophenyl)-4,5-dihydro-1H-pyrazole-1-carbonyl)bicyclo[1.1.1]-pentan-1-yl)methyl)-1H-pyrazole-3-carbonitrile and 1-((3-(5-(3,5-difluorophenyl)-4,5-dihydro-1H-pyrazole-1-carbonyl)bicyclo[1.1.1]-pentan-1-yl)methyl)-1H-pyrazole-5-carbonitrile [Example 189]",–,0.027 µM
"COC(=O)C12CC(C(=O)N3CC[C@@H](Oc4cc(F)ccc4F)C3)(C1)C2 [Example 37, Methyl (R)-3-(3-(2,5-difluorophenoxy)pyrrolidine-1-carbonyl)-bicyclo[1.1.1]pentane-1-carboxylate]",> 50,–
"N#Cc1cncc(OCC23CC(C(=O)N4CC(F)CC4c4cccc(F)c4)(C2)C3)n1 (stereo not shown) [Example 96, 6-((3-(4-fluoro-2-(3-fluoro-phenyl)pyrrolidine-1-carbonyl)bicyclo[1.1.1]-pentan-1-yl)methoxy)-pyrazine-2-carbonitrile]",–,0.162 µM
"O=C(N1N=CCC1c1ccccc1)C12CC(C1)C2 (stereo not shown) [Example 44, Bicyclo[1.1.1]pentan-1-yl(5-phenyl-4,5-dihydro-1H-pyrazol-1-yl)methanone]",–,0.038 µM
"NC(=O)c1ccnc(OCC23CC(C(=O)N4CC(F)CC4c4cccc(F)c4)(C2)C3)n1 (stereo not shown) [Example 95, 2-((3-(4-fluoro-2-(3-fluoro-phenyl)pyrrolidine-1-carbonyl)bicyclo[1.1.1]-pentan-1-yl)methoxy)-pyrimidine-4-carboxamide]",–,0.151 µM
